The values below are quoted from earlier work in patent US8236821B2, “Substituted N-phenyl-5-phenyl-pyrazolin-3-yl amides as cannabinoid receptor antagonists/inverse agonists useful for treating obesity” (Jenrin Discovery, Inc., priority 2008, dated 2012).

For this series the following is noted: type 2 diabetes patients not treated with other anti-diabetic medications; six months of treatment; baseline value 7.9; placebo reduction 0.3%.

Take `Cc1c(C(=O)NN2CCCCC2)nn(-c2ccc(Cl)cc2Cl)c1-c1ccc(Cl)cc1` [rimonabant]: the HbA1c levels lowered was 0.8%.
